In patent US4141993A, “Compounds of diphenylcyclopentylamine type and methods for their preparation” (priority 1971, dated 1979):
Like-named read-outs stand apart in the source and are kept apart here.

What was measured:
uptake of tritiated 5-HT [1] = experiment: Inhibition of the uptake of tritiated 5-HT in vivo (drug i.p., uptake in midbrain slices); parameters: species or system mice; settings: for ED50: Mus musculus, ip, 0.5 h, read-out: Inhibition (50 %) of uptake in vivo, 5-HT (ED50), i.p., half an hour before the animals were killed
Procedure: (§1) 1. Inhibition of the uptake of tritiated 5-HT in vitro and in vivo
(§2) The drugs were administered intraperitoneally half an hour before the animals were killed and the midbrain was taken out and sliced and incubated in a mixture consisting of, per 100 mg of brain slices, 0.2 μmole of ^3 H-5-HT and 1 μmole of glucose in 2 ml of Krebs-Henseleit buffer, pH 7.4. The incubation time was 5 minutes with 5 minutes of preincubation before ^3 H-5-HT was added. The radioactive ^3 H-5-HT taken up in the slices was extracted with ethanol and the amount was determined by liquid scintillation. […] Active uptake is defined as that part of the radioactive uptake which is inhibited by a high concentration of cocaine. All doses were given at least to four animals.

5-HTP response = 5-HTP response potentiation test; type: in vivo, mice; settings: for 5-HTP potentiation, 25 mg/kg i.p., 1h: drug 1 h before 5-HTP; for 5-HTP potentiation, 25 mg/kg i.p., 1h / 5-HTP potentiation, 25 mg/kg i.p., 4h: 0 = without effect; for 5-HTP potentiation, 25 mg/kg i.p., 4h: drug 4 h before 5-HTP
Procedure: 1. 5-HTP response potentiation test
Inhibition of the uptake of 5-HT potentiates the effects of administered 5-hydroxytryptophane (5-HTP) probably by increasing the amount of 5-HT at the receptor.
These small movements are quantitatively measured in an activity box, type Animex, which can distinguish between small and gross movements. The activity is measured during 20 minutes and only in the case the animals have a fullblown syndrome.

uptake of tritiated 5-HT [2] = experiment: Inhibition of the uptake of tritiated 5-HT in vitro (midbrain slices); type: biochemical, mice; settings: for Inhibition (50 %) of uptake in vitro, 5-HT: 5-hydroxytryptamine 10^-7 M
Procedure: as §1
as §2, with “The drugs were administered intraperitoneally half an hour before the animals were killed and the midbrain was taken” left out, “0.2 μmole of ^3 H-5-HT and 1 μmole of glucose in” left out

[3] = test system: uptake of tritiated noradrenaline; experiment: Inhibition of the uptake of tritiated noradrenaline in vitro (cortex slices); type: biochemical; settings: for Inhibition (50 %) of uptake in vitro, NA: dl-noradrenaline 10^-7 M
Procedure: (§3) 2. Inhibition of the uptake of tritiated noradrenaline in vitro and in vivo
(§4) The method is found in European Journal of Pharmacology 2 (1967), 181- 186. The animals were killed half or one hour after the administration of the drugs in vivo (i.p.). The slices, made from cortex, were preincubated for five minutes and incubated with 0.1 μmole per ml of ^3 H-noradrenaline for further five minutes. The incubation mixture consisted of 0.2 μmole of ^3 H-NA and the brain slices in 2 ml of Krebs-Henseleits buffer, pH 7.4. The radioactive ^3 H-NA taken up in the slices was extracted with ethanol and the amount was determined by liquid scintillation. The dose producing 50 percent decrease of the active uptake (ED50) was determined graphically from dose response curves. At least four animals were used at each dose level.
Inhibition (50 %) of uptake
^2) Na = dl-noradrenaline 10^-7 M

[4] = test system: uptake of tritiated noradrenaline; experiment: Inhibition of the uptake of tritiated noradrenaline in vivo (drug i.p., uptake in cortex slices); settings: for ED50: ip, 1 h, read-out: Inhibition (50 %) of uptake in vivo, NA (ED50), i.p., half or one hour before the animals were killed
Procedure: as §3
as §4, with “The” for “The method is found in European Journal of Pharmacology 2 (1967), 181- 186. The”

mice [5] = experiment: Motor activity in mice (exploratory activity, locomotion cage); type: in vivo; settings: Mus musculus, ip, 1 h, read-out: Motor activity ID50
Procedure: The exploratory activity of mice was recorded in a locomotion cage in which the movements were counted each time the animals cross-circuit an electrical current in the bottom plate. The activity was recorded for ten minutes one hour after the administration of the drug. The animals were tested individually. Groups of six mice were used and the mice were only used once. The activity was expressed in percent of the activity of control groups ran simultaneously.

[6] = first observable after; cited from earlier work
Dopa response = Dopa response potentiation test; type: in vivo, mice; settings: score, pargyline pretreated; for L-DOPA potentiation, 10 mg/kg i.p., 1h: drug 1 h before 1-Dopa 100 mg/kg i.p.; for L-DOPA potentiation, 10 mg/kg i.p., 4h: drug 4 h before 1-Dopa 100 mg/kg i.p.
Procedure: Mice in groups of 3 are pretreated with Pargyline® 40 mg/kg p.o. about 10-16 hours before the test. […] 1-Dopa gives a characteristic syndrome which is scored as follows:
1. piloerection, slight salivation, slight increased motor activity
2. piloerection, salivation, marked increased motor activity and irritability
3. piloerection, profuse salivation, marked irritability and reactivity, jumping, squeaking, fighting.
The control groups are Amitriptyline (20 mg/kg i.p. 4 hours before 1-Dopa) and saline (1 hour before 1-Dopa). […] The test drugs were all tested at 10 mg/kg i.p.

mice [7] = experiment: Anticholinergic effect (mydriasis) in mice; type: in vivo
Procedure: (§5) Acute toxicity, behavior and anticholinergic effect (mydriasis) in mice
(§6) The compounds were given by intravenous route to 3 mice. […] Seizures, gait, sedation and grip strength were recorded. […] PD200 is the dose which increases the pupil by 200%.

uptake of tritiated 5-HT [8] = experiment: Inhibition of the uptake of tritiated 5-HT in vivo (drug i.p., uptake in midbrain slices); parameters: species or system mice
Acute toxicity in mice = settings: mouse, in vivo, iv, within 24 hours
Procedure: as §5, §6

[9] = Drug induced arrhythmia in rats: ECG changes and LD50; type: in vivo; settings: in vivo, iv; i.v. infusion, rat, stepwise increased doses
Excerpt: (§7) Drug Induced Arrhythmia in Rats: ECG changes and LD50
(§8) Rats were infused intravenously with test drugs and relevant reference compounds. The doses are increased stepwise. The first dose causing ECG changes of any type was noted, and thereafter the doses were increased up to the lethal dose.

rats = experiment: as above; type: in vivo
Excerpt: as §7, §8

## CN(C)CCCN1c2ccccc2CCc2ccccc21 [Imipramine, imipramine, reference compound]
Uptake of tritiated 5-HT [1]
  ED50: 24 mg/kg
5-HTP response; control group
  potentiation of dl-5-HTP by reference, in words: constantly potentiated dl-5-HTP
5-HTP response
  5-HTP potentiation, 25 mg/kg i.p., 1h: 25
  5-HTP potentiation, 25 mg/kg i.p., 4h: 0
Uptake of tritiated 5-HT [2]
  Inhibition (50 %) of uptake in vitro, 5-HT: 0.10 µg/mL
[3]
  Inhibition (50 %) of uptake in vitro, NA: 0.06 µg/mL
[4]
  ED50: 6 mg/kg
Mice [5]
  ED50: 45 mg/kg
[6]
  onset of antidepressive effect: 3 weeks
Dopa response
  L-DOPA potentiation, 10 mg/kg i.p., 1h: 2
  L-DOPA potentiation, 10 mg/kg i.p., 4h: 1
Mice [7]; i.v., 10 minutes after injection, dose which increases the pupil by 200%
  Mydriasis PD200: 13 mg/kg

## NC1CCC(c2ccccc2)(c2ccccc2)C1 (stereo not shown) [PUB 105, 1-Amino-3,3-diphenylcyclopentane]
Uptake of tritiated 5-HT [8]
  uptake inhibition still pronounced after: 16 h
Uptake of tritiated 5-HT [8]; uptake inhibition increases with time
  time of maximal uptake inhibition: four
Uptake of tritiated 5-HT [8]; uptake of 5-HT and noradrenaline
  duration of inhibition of the uptake mechanism compared with imipramine: much longer time than does the reference substance imipramine
Uptake of tritiated 5-HT [1]
  ED50: 10 to 20 mg/kg
Uptake of tritiated 5-HT [1]; in vivo
  inhibition of uptake of 5-hydroxytryptamine in vivo, in words: strong inhibition
5-HTP response
  5-HTP potentiation, 25 mg/kg i.p., 1h: 12.5
  5-HTP potentiation, 25 mg/kg i.p., 4h: 25
Uptake of tritiated 5-HT [2]
  Inhibition (50 %) of uptake in vitro, 5-HT: 0.18 µg/mL
Uptake of tritiated 5-HT [2]; in vitro
  inhibition of uptake of 5-hydroxytryptamine in vitro, in words: potent inhibitors
[3]
  Inhibition (50 %) of uptake in vitro, NA: 0.15 µg/mL
[3]; in vitro
  inhibition of uptake of noradrenaline in vitro, in words: potent inhibitors
[4]; in vivo
  inhibition of uptake of noradrenaline in vivo, in words: strong inhibition
[4]
  ED50: 20 mg/kg
[4]; uptake inhibition, compared with imipramine
  selectivity towards noradrenaline: substantially nonselective ability towards noradrenaline
Mice [5]; i.p., one hour after administration
  ED50: > 50 mg/kg
Acute toxicity in mice
  LD50 at 24 h: 22 mg/kg
[9]
  LD50: 58 mg/kg
rats; i.v. infusion
  ECG changes i.v. rat (first dose causing ECG changes of any type): 14
rats; i.v., rat
  dose causing ECG changes relative to that of imipramine: 3 times
Dopa response
  L-DOPA potentiation, 10 mg/kg i.p., 1h: 3
  L-DOPA potentiation, 10 mg/kg i.p., 4h: 3
Mice [7]; mouse, in vivo, iv, 10 min
  Mydriasis PD200: 19 mg/kg
